In ChEMBL document CHEMBL1145238, “Selective PPARgamma modulators with improved pharmacological profiles” (Bioorg Med Chem Lett, 2005):

Key:
[1] = target: T1, Peroxisome proliferator-activated receptor gamma (Homo sapiens, UniProt P37231)
T1 sequence (P37231 whole entry): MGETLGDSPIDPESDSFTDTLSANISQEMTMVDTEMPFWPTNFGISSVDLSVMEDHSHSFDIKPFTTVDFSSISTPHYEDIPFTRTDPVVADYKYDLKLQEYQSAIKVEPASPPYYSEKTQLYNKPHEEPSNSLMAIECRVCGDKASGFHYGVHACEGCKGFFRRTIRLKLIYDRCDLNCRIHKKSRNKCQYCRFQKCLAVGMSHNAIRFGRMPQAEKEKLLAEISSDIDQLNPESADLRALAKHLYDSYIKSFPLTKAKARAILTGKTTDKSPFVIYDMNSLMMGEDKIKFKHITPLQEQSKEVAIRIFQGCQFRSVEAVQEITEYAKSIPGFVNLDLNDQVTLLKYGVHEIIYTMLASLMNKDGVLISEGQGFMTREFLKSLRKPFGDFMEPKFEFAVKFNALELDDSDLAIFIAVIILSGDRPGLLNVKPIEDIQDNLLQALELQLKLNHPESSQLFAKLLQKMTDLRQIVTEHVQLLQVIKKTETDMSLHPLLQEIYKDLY
Description: Maximal intrinsic response against peroxisome proliferator activated receptor gamma transactivation

[2] = target: T1, Peroxisome proliferator-activated receptor gamma; experiment: Inhibition of human peroxisome proliferator activated receptor gamma binding
[3] = mouse, in vivo, 10 mg/kg
Description: Area under plasma concentration time curve when administered to db/db mice at 10 mg/kg dose; Range = 250-700 uMh

[4] = Area under plasma concentration time curve when administered to Sprague Dawley rats after once daily dosing for two weeks; format: ADME; conditions: rat
[5] = Area under plasma concentration time curve when administered to db/db mice at 30 mg/kg dose; format: ADME, organism-based; set-up: dose 30 mg/kg; conditions: mouse, in vivo
Cytochrome P450 2C9 = Cytochrome P450 2C9 (Homo sapiens, UniProt P11712); experiment: Inhibitory concentration against Cytochrome P450 2C9 in rats
Chain of Cytochrome P450 2C9 (P11712 whole entry): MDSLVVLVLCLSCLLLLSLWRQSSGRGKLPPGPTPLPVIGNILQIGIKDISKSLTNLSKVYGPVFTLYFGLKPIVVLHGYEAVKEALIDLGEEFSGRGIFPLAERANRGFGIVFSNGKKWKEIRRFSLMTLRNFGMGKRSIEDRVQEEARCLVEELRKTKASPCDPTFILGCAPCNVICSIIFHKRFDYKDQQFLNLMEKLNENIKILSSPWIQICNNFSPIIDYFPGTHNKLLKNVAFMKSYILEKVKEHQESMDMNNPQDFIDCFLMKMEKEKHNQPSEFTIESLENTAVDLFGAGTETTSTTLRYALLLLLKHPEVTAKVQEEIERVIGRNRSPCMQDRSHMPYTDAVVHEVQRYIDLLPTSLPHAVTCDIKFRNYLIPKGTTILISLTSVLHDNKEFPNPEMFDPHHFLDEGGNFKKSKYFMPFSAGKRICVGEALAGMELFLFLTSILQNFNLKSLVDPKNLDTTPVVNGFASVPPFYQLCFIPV

SMILES	EC50 [1] [nM]	IC50 [2] [nM]	also measured
C#CCOc1cccc(Cc2c(C)n(C(=O)c3ccc(OC)cc3)c3ccc(OC(F)(F)F)cc23)c1	31	62	
CCCc1c(Oc2c(C)n(-c3noc4cc(Cl)ccc34)c3ccc(OC(F)(F)F)cc23)cccc1O[C@@H](C)C(=O)O		641	
Cc1c(Oc2cccc(O[C@@H](C)C(=O)O)c2)c2cc(OC(F)(F)F)ccc2n1-c1noc2cc(Cl)ccc12	195	33	
CN(CCOc1ccc(CC2SC(=O)NC2=O)cc1)c1ccccn1 (stereo not given) [ROSIGLITAZONE]			AUC [3]: 700 uMh; AUC [4]: 2700 uMh
COc1ccc2c(-n3c(C)c(Cc4cc(O[C@H](C)C(=O)O)ccc4Cl)c4cc(OC(F)(F)F)ccc43)noc2c1	3	2	AUC [5]: 660 uMh; AUC [4]: 1030 uMh
Cc1c(Oc2cc(Cl)cc(O[C@@H](C)C(=O)O)c2)c2cc(OC(F)(F)F)ccc2n1-c1noc2cc(Cl)ccc12	114	109	
COc1ccc2nc(-n3c(C)c(Cc4cccc(O[C@@H](C)C(=O)O)c4)c4cc(OC(F)(F)F)ccc43)ccc2c1		135	
CCCc1ccc(Oc2c(C)n(-c3noc4cc(Cl)ccc34)c3ccc(OC(F)(F)F)cc23)cc1O[C@@H](C)C(=O)O	39	20	
CN1C(=O)SC(Cc2ccc(OCCN(C)c3ccccn3)cc2)C1=O (stereo not given)	> 3000	> 50000	
Cc1c(Cc2cccc(O[C@@H](C)C(=O)O)c2)c2cc(OC(F)(F)F)ccc2n1-c1ccccn1		466	
Cc1[nH]c2ccc(OC(F)(F)F)cc2c1Cc1cccc(O[C@@H](C)C(=O)O)c1			IC50 (Cytochrome P450 2C9): 50 nM
Cc1c(Oc2cc(O[C@@H](C)C(=O)O)ccc2Cl)c2cc(OC(F)(F)F)ccc2n1-c1noc2cc(Cl)ccc12	3	5	
Cc1c(Oc2ccc(Cl)c(O[C@@H](C)C(=O)O)c2)c2cc(OC(F)(F)F)ccc2n1-c1noc2cc(Cl)ccc12	3	1	
COc1ccc(C(=O)n2c(C)c(Cc3cccc(OCC#N)c3)c3cc(OC(F)(F)F)ccc32)cc1	16	42	
COc1ccc2ncc(-n3c(C)c(Cc4cccc(O[C@@H](C)C(=O)O)c4)c4cc(OC(F)(F)F)ccc43)cc2c1	49	29	
COc1ccc(-n2c(C)c(Cc3cccc(O[C@@H](C)C(=O)O)c3)c3cc(OC(F)(F)F)ccc32)cc1	3	1	
